{
  "source": "patent US20250197799A1",
  "about": "“CELLS DERIVED FROM POLYPEDILUM VANDERPLANKI AND ODOR SENSOR EQUIPPED THEREWITH” (University of Maryland, College Park, priority 2022, published 2025)",
  "key": {"Orco-Or47a [1]": {"biological_target": "T1, Orco-Or47a (Drosophila melanogaster, UniProt P81921+Q9VNB5)", "T1 sequence (Q9VNB5 1-486)": "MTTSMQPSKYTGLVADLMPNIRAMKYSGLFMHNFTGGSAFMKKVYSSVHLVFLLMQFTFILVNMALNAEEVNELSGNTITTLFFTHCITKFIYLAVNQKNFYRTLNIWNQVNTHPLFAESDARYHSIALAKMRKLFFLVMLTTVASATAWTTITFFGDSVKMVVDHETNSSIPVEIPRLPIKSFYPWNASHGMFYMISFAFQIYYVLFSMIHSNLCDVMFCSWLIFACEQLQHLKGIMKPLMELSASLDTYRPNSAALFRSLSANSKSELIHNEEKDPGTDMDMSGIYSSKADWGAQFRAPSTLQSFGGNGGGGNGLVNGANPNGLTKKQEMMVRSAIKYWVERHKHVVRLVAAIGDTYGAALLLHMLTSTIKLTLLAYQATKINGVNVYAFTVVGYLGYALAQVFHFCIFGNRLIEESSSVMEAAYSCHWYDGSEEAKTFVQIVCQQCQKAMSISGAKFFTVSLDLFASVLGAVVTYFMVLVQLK", "T1 sequence (P81921 1-385)": "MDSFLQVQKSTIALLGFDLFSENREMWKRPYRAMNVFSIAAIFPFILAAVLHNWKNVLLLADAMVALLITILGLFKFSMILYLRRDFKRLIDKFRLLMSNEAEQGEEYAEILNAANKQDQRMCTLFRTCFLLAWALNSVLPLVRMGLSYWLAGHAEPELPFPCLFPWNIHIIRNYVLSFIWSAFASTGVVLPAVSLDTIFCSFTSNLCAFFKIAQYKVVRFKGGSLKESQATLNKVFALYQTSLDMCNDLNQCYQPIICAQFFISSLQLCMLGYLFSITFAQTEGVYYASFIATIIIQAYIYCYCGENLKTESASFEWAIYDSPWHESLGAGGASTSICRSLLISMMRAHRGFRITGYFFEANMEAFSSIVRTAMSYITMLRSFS", "test": "Response after rehydration with cycloheximide treatment, Orco-Or47a stable expression cell line", "format": "cell-based", "set-up": "remnant residues; expressed in transfected cells; host or cells: Pv11 cells (Polypedilum vanderplanki), CRIS-PITCh knock-in at the Pv.00443 locus downstream of the 121 promoter, Zeocin selection and single-cell sorting", "experimental": "7. Confirmation that exogenous membrane protein responses in Orco-Or47a stable expression cell lines immediately after rehydration are not due to de novo protein synthesis. To confirm that the membrane protein response of the Orco-Or47a stable expression cell line immediately after rehydration was not due to de novo protein synthesis, cells were treated with cycloheximide (CHX, a protein synthesis inhibitor).\nA previous study reported that 0.35 mM of cycloheximide is able to inhibit protein production in Pv11 cells. Therefore, also in this experiment, cycloheximide was dissolved in IPL-41 medium so that the cycloheximide concentration was 0.35 mM. An IPL-41 medium with 0.01 mM, 0.07 mM and 0.7 mM cycloheximide was also prepared. The rehydration of dried cells was performed using 1 ml of I PL-41 medium containing cycloheximide. One hour after rehydration and 24 hours after rehydration, the same operation as in 3.6 above was performed, and the fluorescence intensity was measured and analyzed. The ΔF/F0 was as described above. FIG. 7A and FIG. 7B are graphs showing changes in fluorescence intensity of the Orco-Or47a stable expression cell line response to VUAA1 and pentyl acetate, respectively, one hour after drying and rehydration. FIGS. 7C and 7D are graphs showing changes in fluorescence intensity, respectively, in response to VUAA1 and pentyl acetate of Orco-Or47a stable expression cell lines 24 hours after drying and rehydration."}, "Orco-Or47a [2]": {"biological_target": "T1, Orco-Or47a", "test": "Ligand assay using a perfusion system", "format": "cell-based", "set-up": "remnant residues; expressed in transfected cells; host or cells: Pv11 cells (Polypedilum vanderplanki), CRIS-PITCh knock-in at the Pv.00443 locus downstream of the 121 promoter, Zeocin selection and single-cell sorting", "conditions": "1 mM pentyl acetate perfused 5 minutes at 1 mL/min; BAM-fixed cells", "experimental": "9.1 Ligand assay. A ligand assay was performed using a perfusion system using Orco-Or47a stable expression cell line and GCaMP6f stable expression cell line. […] The Orco-Or47a stable expression cell line and the GCaMP6f stable expression cell line were fixed with BAM as described in 8.1 above and perfused at a flow rate of 1 mL/min using a peristaltic pump (SJ-1211 II-L2, ATTO). The perfusion solution was ACSF buffer (125 mM NaCl, 5.6 mM KCl, 1.25 mM Na2HPO4, 10 mM HEPES, 1.5 mM CaCl2), pH7.4) as a standard solution. As a ligand for Or47a, pentyl acetate was diluted to a final concentration of 1 mM, and as a negative control, DMSO was diluted to 1% by mass. The standard solution was perfused, switched to 1 mM pentyl acetate solution or 1% by mass DMSO solution, and perfusion was performed for 5 minutes. Photographing of the cells was started after waiting for the 1 mM pentyl acetate solution or 1% by mass DMSO solution to reach the cells in about 60 seconds. Bright-field and fluorescence images of the perfused Pv11 cells were taken 30 times at 10-second intervals (LSM700, ZEISS). The method for obtaining ΔF/F0 was as described above. 25 cells were selected from the captured image, each produced ΔF/F0, and the response was maintained for about 4 minutes; from this it was confirmed that the present disclosure can be applied as an odor sensor capable of rapid odor determination."}, "[3]": {"conditions": "1 hour after drying-rehydration"}, "[4]": {"conditions": "24 hours after rehydration, without CHX"}},
  "data": [
    {"compound": "CCCCCOC(C)=O", "note": "[pentyl acetate]", "values": [
      {"measurement": "response as change in fluorescence intensity (ΔF/F0)", "setting": "Orco-Or47a [1]; [3]", "value": "specific responses"},
      {"measurement": "response as change in fluorescence intensity (ΔF/F0)", "setting": "Orco-Or47a [1]; [4]", "value": "strongly enhanced"},
      {"measurement": "time the response was maintained", "setting": "Orco-Or47a [2]", "value": "about 4 minutes"}
    ]},
    {"compound": "CCc1ccc(NC(=O)CSc2nnc(-c3cccnc3)n2CC)cc1", "note": "[VUAA1, N-(4-ethylphenyl)-2-{[4-ethyl-5-(pyridin-3-yl)-4H-1,2,4-triazol-3-yl]sulfanyl}acetamide]", "values": [
      {"measurement": "response as change in fluorescence intensity (ΔF/F0)", "setting": "Orco-Or47a [1]; [3]", "value": "specific responses"},
      {"measurement": "response as change in fluorescence intensity (ΔF/F0)", "setting": "Orco-Or47a [1]; [4]", "value": "strongly enhanced"}
    ]}
  ]
}
